Data as given in ChEMBL document CHEMBL1201862, “PubChem BioAssay data set” (2004).
Several values for one entry are separate records, joined by “and”; a condition that tells them apart may be missing. Equal entries are not always repeated.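 These data come from cells grown in 96-well plates and exposed to compound for 48 hours at five concentrations. The concentration for 50% growth inhibition is given as GI50.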 Activity calls are given as the source filed them. No stated cut-off is given here; in the data, active = GI50 up to about 1.1 µM and inactive = higher.

Tests used:
Assay in all cases: growth of human tumour cells (NCI), 48 h
[1] = system: NCI/ADR-RES
[2] = system: 786-0
[3] = system: ACHN
[4] = system: A549
[5] = system: LXFL 529
[6] = system: SF-268
[7] = system: HL-60
[8] = system: Malme-3M
[9] = system: NCI-H226
[10] = system: SF-295
[11] = system: K562
[12] = system: IGROV-1
[13] = system: M14
[14] = system: RXF 631
[15] = system: SK-MEL-2
[16] = system: LOX IMVI
[17] = system: SNB-78
[18] = system: NCI-H23
[19] = system: RPMI-8226
[20] = system: SNB-75
[21] = system: MCF7
[22] = system: CCRF-CEM
[23] = system: SK-OV-3
[24] = system: TK-10
[25] = system: UO-31
[26] = system: HOP-18
[27] = system: HT-29
[28] = system: NCI-H522
[29] = system: HOP-62
[30] = system: SF-539
[31] = system: SNB-19
[32] = system: A498
[33] = system: UACC-62
[34] = system: HCC 2998
[35] = system: SR
[36] = system: SK-MEL-28
[37] = system: OVCAR-8
[38] = system: HCT-15
[39] = system: SW-620
[40] = system: HCT-116
[41] = system: U-251
[42] = system: M19-MEL
[43] = system: DMS-114
[44] = system: HOP-92
[45] = system: MOLT-4
[46] = system: CAKI-1
[47] = system: OVCAR-3
[48] = system: DLD-1
[49] = system: KM12
[50] = system: NCI-H460
[51] = system: UACC-257
[52] = system: COLO 205
[53] = system: KM-20L2
[54] = system: EKVX
[55] = system: OVCAR-5
[56] = system: SK-MEL-5
[57] = system: DMS-273
[58] = system: SN12C
[59] = system: XF498
[60] = system: OVCAR-4

Measured: GI50

NC(=O)C#CC(N)=O
inactive: [1] 7.14 µM | [2] 29.2 µM | [3] > 100 µM | [4] 73.3 µM | [5] 64.9 µM | [6] 60.3 µM and 38.9 µM | [7] 2.52 µM and 1.71 µM | [8] 13.1 µM and 7.53 µM | [9] > 100 µM and 63 µM | [10] 13.8 µM and 25.2 µM | [11] 2.91 µM and 4.66 µM | [12] > 100 µM and 67.5 µM | [13] 19.2 µM | [14] > 100 µM | [15] 21.9 µM and 13.7 µM | [16] 14.5 µM and 18.3 µM | [17] 54 µM and 47.3 µM | [18] 58.5 µM and > 91.2 µM | [19] 2.14 µM | [20] 30.1 µM and 42.2 µM | [21] 19.3 µM | [22] 3.08 µM and 1.94 µM | [23] > 100 µM and 108 µM | [24] 20.8 µM | [25] 24 µM and 28.5 µM | [26] 18.2 µM and 28.2 µM | [27] 20.8 µM and 41.5 µM | [28] 21.2 µM and 14.2 µM | [29] > 100 µM and 69.2 µM | [30] 24.4 µM and 19.5 µM | [31] > 100 µM and 121 µM | [32] > 100 µM and 53.1 µM | [33] 19.4 µM and 14.6 µM | [34] > 100 µM and 58.3 µM | [35] 14.6 µM | [36] 7.08 µM and 14 µM

CC1=C(N(C)C)C(=O)c2nc3n(c2C1=O)CCC3OC(N)=O (configuration not stated)
inactive: [37] 16.7 µM | [2] 17.1 µM | [3] 16.7 µM | [4] 18.8 µM | [39] 18.7 µM | [40] 15.4 µM | [41] 23.2 µM | [6] 20.1 µM | [42] 1.7 µM | [7] 10.4 µM | [43] 16.1 µM | [8] 11.2 µM | [44] 14.8 µM | [45] 13.1 µM | [46] 18.5 µM | [47] 16.8 µM | [48] 16.2 µM | [9] 19.4 µM | [49] 17.2 µM | [10] 15.2 µM | [11] 18.5 µM | [12] 16.8 µM | [50] 15.6 µM | [13] 13.6 µM | [15] 15.6 µM | [51] 14.2 µM | [52] 18 µM | [16] 10.9 µM | [17] 23 µM | [18] 13.8 µM | [53] 20.2 µM | [19] 16.9 µM | [20] 23.7 µM | [54] 20.5 µM | [22] 15.1 µM | [55] 19.6 µM | [56] 11.5 µM | [57] 15.8 µM | [58] 15.2 µM | [23] 15.2 µM | [24] 18.2 µM | [25] 17.3 µM | [26] 17.7 µM | [27] 19.7 µM | [28] 15.2 µM | [29] 17.6 µM | [30] 17.5 µM | [31] 17.5 µM | [32] 13.2 µM | [33] 5.58 µM | [34] 18.2 µM | [59] 23.9 µM | [60] 19.9 µM | [35] 31.3 µM | [36] 20.2 µM
14.5 µM: [38]
